# Experimental data from patent US20260041669A1, “SOLID FORMS OF A CDK INHIBITOR” (Relay Therapeutics, Inc., priority 2022, published 2026).
# Where “and” joins values, the source holds several entries; their conditions need not be identical. Equal entries are not always repeated. Where two headings read alike, the source gives them in different places.
# Test: Thermodynamic solubility of cocrystals (HPLC quantitation)
# Type: physicochemical
# Conditions: for solubility at 24 h: thermodynamic from solid
# Protocol: Base Buffer (FaSSGF), pH 1.6—Sodium chloride (2.03 g) was dissolved in Ca. 800 ml of deionised water in a 1 L volumetric flask. This solution was mixed thoroughly and then the pH adjusted to 1.6±0.05 with concentrated hydrochloric acid. The solution was then made to volume with deionised water and the pH recorded (pH 1.6).
# FaSSGF Media—Phares SIF (simulated intestinal fluid) powder (0.06 g) was dissolved in Ca. 800 ml of base buffer (2.1.1) in a 1 L volumetric flask. This solution was mixed thoroughly and then made to volume with the same base buffer. The final pH was recorded (pH 1.7)
# Acetate Base Buffer (FeSSIF), pH 5.0—Sodium hydroxide (11.90 g), acetic acid (8.25 ml) and sodium chloride (3.96 g) were dissolved in Ca. 800 ml of deionised water in a 1 L volumetric flask. This solution was mixed thoroughly and then the pH adjusted to 5.0±0.05 with 0.5M hydrochloric acid. The solution was then made to volume with deionised water and the pH recorded (pH 5.0)
# FeSSIF Media—Phares SIF (simulated intestinal fluid) powder (1.12 g) was dissolved in Ca. 80 ml of base buffer (2.2.1) in a 100 ml volumetric flask. This solution was mixed thoroughly and then made to volume with the same base buffer. The final pH was recorded (pH 4.8)
# Phosphate Base Buffer (FeSSIF), pH 6.5—Sodium hydroxide (0.41 g), sodium phosphate monobasic (3.95 g) and sodium chloride (6.49 g) were dissolved in Ca. 800 ml of deionised water in a 1 L volumetric flask. This solution was mixed thoroughly and then the pH adjusted to 6.5 f 0.05 with 0.5M hydrochloric acid. The solution was then made to volume with deionised water and the pH recorded (pH 6.5)
# FaSSIF Media—Phares SIF (simulated intestinal fluid) powder (0.23 g) was dissolved in Ca. 80 ml of base buffer ([00300]) in a 100 ml volumetric flask. This solution was mixed thoroughly and then made to volume with the same base buffer. The final pH was recorded (pH 6.3)
# DI Water (deionized water)—The pH was recorded (pH 6.1)
# Thermodynamic Solubility—Sufficient sample was suspended in 0.5 ml media for a maximum anticipated concentration of Ca. 10 mg/ml of the free form of the compound. The resulting suspensions were then shaken at 25° C./750 rpm for 24 hours in DI H2O and at 37° C./750 rpm for 24 hours in simulated fluids. After equilibration, the appearance was noted, and the pH of the saturated solution was measured. Samples were then filtered through a glass ‘C’ fibre filter (Particle retention 1.2 μm), before dilution with buffer as appropriate.
# Quantitation was by HPLC with reference to a standard solution of approximately 0.15 mg/ml. Different volumes of the standards and diluted sample solutions were injected. The solubility was calculated using the peak areas determined by integration of the peak found at the same retention time as the principal peak in the standard injection.
# The results from the solubility measurements in deionized water (DI water), stimulated fasting state conditions in the gastric fluid (FaSGF), simulated fed state conditions in the small intestines (FeSSIF), and simulated fasting state conditions in the small intestines fluid (FaSSIF) are summarized in Table 16.
# [1] = DI Water, shaken at 25° C./750 rpm for 24 hours, single replicate
# [2] = FaSSGF, shaken at 37° C./750 rpm for 24 hours, average
# [3] = FaSSGF, shaken at 37° C./750 rpm for 24 hours, single replicate
# [4] = FeSSIF, shaken at 37° C./750 rpm for 24 hours, average
# [5] = FeSSIF, shaken at 37° C./750 rpm for 24 hours, single replicate
# [6] = DI Water, shaken at 25° C./750 rpm for 24 hours, average
# [7] = FaSSIF, shaken at 37° C./750 rpm for 24 hours, average
# [8] = FaSSIF, shaken at 37° C./750 rpm for 24 hours, single replicate
SMILES,Solubility [1] [µg/mL],Average Solubility [2] [µg/mL],Solubility [3],Average Solubility [4] [µg/mL],Solubility [5],"solubility at 24 h (deionized water, 25 °C, pH 6.1, water, DI Water, shaken at 25° C./750 rpm for 24 hours, average, read-out: Average Solubility) [µg/mL]","solubility at 24 h (deionized water, 25 °C, pH 6.1, water, DI Water, shaken at 25° C./750 rpm for 24 hours, single replicate, read-out: Solubility) [µg/mL]",Average Solubility [6] [µg/mL],Average Solubility [7] [µg/mL],Solubility [8] [µg/mL],"solubility at 24 h (FaSSGF (simulated gastric fluid, fasted state), 37 °C, pH 1.7, fassgf or other biorelevant, FaSSGF, shaken at 37° C./750 rpm for 24 hours, average, read-out: Average Solubility) [µg/mL]","solubility at 24 h (FaSSGF (simulated gastric fluid, fasted state), 37 °C, pH 1.7, fassgf or other biorelevant, FaSSGF, shaken at 37° C./750 rpm for 24 hours, single replicate, read-out: Solubility) [µg/mL]","solubility at 24 h (FaSSIF (simulated intestinal fluid, fasted state), 37 °C, pH 6.3, fassif, FaSSIF, shaken at 37° C./750 rpm for 24 hours, average, read-out: Average Solubility) [µg/mL]","solubility at 24 h (FaSSIF (simulated intestinal fluid, fasted state), 37 °C, pH 6.3, fassif, FaSSIF, shaken at 37° C./750 rpm for 24 hours, single replicate, read-out: Solubility) [µg/mL]","solubility at 24 h (FeSSIF (simulated intestinal fluid, fed state), 37 °C, pH 4.8, fessif, FeSSIF, shaken at 37° C./750 rpm for 24 hours, average, read-out: Average Solubility) [µg/mL]"
Cn1nc(OCC(F)F)cc1C(=O)Nc1cc([C@H]2C[C@@H](OC(=O)NC34CC(C3)C4)CO2)n[nH]1 [Componud I-3 Form A],300,390,380 µg/mL and 390 µg/mL,490,620 µg/mL and 360 µg/mL,300,290,,,,,,,,
Cn1nc(OCC(F)F)cc1C(=O)Nc1cc([C@H]2C[C@@H](OC(=O)NC34CC(C3)C4)CO2)n[nH]1 [Compound 1-5 Form A],280,310,310 µg/mL,820,840 µg/mL and 800 µg/mL,,,280,250,240,,,,,
Cn1nc(OCC(F)F)cc1C(=O)Nc1cc([C@H]2C[C@@H](OC(=O)NC34CC(C3)C4)CO2)n[nH]1 [Compound I-2 Form A],210,,350 µg/mL,,920 µg/mL and 850 µg/mL,,,210,,,350,340,290,290,890

# Results, then the compound that gave them:
Solubility [1] [µg/mL],Average Solubility [2] [µg/mL],Solubility [3],Average Solubility [4] [µg/mL],Solubility [5],"solubility at 24 h (deionized water, 25 °C, pH 6.1, water, DI Water, shaken at 25° C./750 rpm for 24 hours, average, read-out: Average Solubility) [µg/mL]","solubility at 24 h (deionized water, 25 °C, pH 6.1, water, DI Water, shaken at 25° C./750 rpm for 24 hours, single replicate, read-out: Solubility) [µg/mL]",Average Solubility [6] [µg/mL],Average Solubility [7] [µg/mL],Solubility [8] [µg/mL],"solubility at 24 h (FaSSGF (simulated gastric fluid, fasted state), 37 °C, pH 1.7, fassgf or other biorelevant, FaSSGF, shaken at 37° C./750 rpm for 24 hours, average, read-out: Average Solubility) [µg/mL]","solubility at 24 h (FaSSGF (simulated gastric fluid, fasted state), 37 °C, pH 1.7, fassgf or other biorelevant, FaSSGF, shaken at 37° C./750 rpm for 24 hours, single replicate, read-out: Solubility) [µg/mL]","solubility at 24 h (FaSSIF (simulated intestinal fluid, fasted state), 37 °C, pH 6.3, fassif, FaSSIF, shaken at 37° C./750 rpm for 24 hours, average, read-out: Average Solubility) [µg/mL]","solubility at 24 h (FaSSIF (simulated intestinal fluid, fasted state), 37 °C, pH 6.3, fassif, FaSSIF, shaken at 37° C./750 rpm for 24 hours, single replicate, read-out: Solubility) [µg/mL]","solubility at 24 h (FeSSIF (simulated intestinal fluid, fed state), 37 °C, pH 4.8, fessif, FeSSIF, shaken at 37° C./750 rpm for 24 hours, average, read-out: Average Solubility) [µg/mL]",SMILES
330,320,320 µg/mL,700,660 µg/mL and 730 µg/mL,,,330,310,310,,,,,,Cn1nc(OCC(F)F)cc1C(=O)Nc1cc([C@H]2C[C@@H](OC(=O)NC34CC(C3)C4)CO2)n[nH]1 [Compound 1-6 Form A]
290,370,370 µg/mL and 360 µg/mL,880,940 µg/mL and 820 µg/mL,,,290,290,280,,,,,,Cn1nc(OCC(F)F)cc1C(=O)Nc1cc([C@H]2C[C@@H](OC(=O)NC34CC(C3)C4)CO2)n[nH]1 [Compound I-4 Form A]
